Results as given in patent US12466832B2, “Monohydrate and crystalline forms of 6-[(3S,4S)-4-methyl-1-(pyrimidin-2-ylmethyl)pyrrolidin-3-yl]-3-tetrahydropyran-4-yl-7H-imidazo[1,5-a]pyrazin-8-one” (Cardurion Pharmaceuticals, Inc., priority 2018, dated 2025).
In brackets after ≈: the same amount, converted by molar mass. Entries after “also recorded” stand apart in the source; their conditions may differ. Each block holds one molecule with its values, some of them ahead of it.

Assays:
Format in all cases: physicochemical
[1] = Gravimetric Vapour Sorption (GVS)
Procedure: Sorption isotherms were obtained using a SMS DVS Intrinsic moisture sorption analyzer, controlled by DVS Intrinsic Control software. The sample temperature was maintained at 25° C. by the instrument controls. The humidity was controlled by mixing streams of dry and wet nitrogen, with a total flow rate of 200 ml/min. The relative humidity was measured by a calibrated Rotronic probe (dynamic range of 1.0-100% RH), located near the sample. The weight change, (mass relaxation) of the sample as a function of % RH was constantly monitored by a microbalance (accuracy ±0.005 mg).
Typically, 5-30 mg of sample was placed in a tared mesh stainless steel basket under ambient conditions. The sample was loaded and unloaded at 40% RH and 25° C. (typical room conditions). A moisture sorption isotherm was performed as outlined below (2 scans per complete cycle). The standard isotherm was performed at 25° C. at 10% RH intervals over a 0-90% RH range. Typically, a double cycle (4 scans) was carried out. Data analysis was carried out within Microsoft Excel using the DVS Analysis Suite.
The sample was recovered after completion of the isotherm and re-analyzed by XRPD.

[2] = Variable temperature XRPD (VT XRPD)
Procedure: For variable temperature (VT) experiments the samples were prepared and analysed in an Anton Paar chromed sample holder. A heating/cooling rate of 10° C./min was used with a 2 min isothermal hold before the measurement started. The measurement parameters are as per the standard screening data collection method (detailed above). Measurements were taken at the following temperatures: 25, 50, 75, 100, 160, and 25° C. The sample was then reanalyzed by XRPD after 1 h to check for complete rehydration.
MH1 was analysed at 25, 50, 75, 100, 160 and 25° C. (10° C./min heating rate and a 2 min wait before the measurement started) on the Empyrean. The sample was then reanalysed by XRPD after 10 and 20 min to check for rehydration.
(§1) Procedure: A second batch of MH2 material was prepared using the same procedure. This sample was then analysed by VTXRPD and by XRPD under vacuum.

[3] = pH profiling solubility experiments; details: 25 °C, thermodynamic from solid
Procedure: Procedure: pH profiling solubility experiments were performed on MH1 and MH2. Solubility was determined in singlicate by suspending sufficient compound in relevant media (1.00 ml) to give a maximum final concentration as shown in the Table 17.
The suspensions were equilibrated at 25° C., on a Heidolph plate shaker set to 750 rpm for 24 hours. Samples were pH adjusted as required using 0.5M/1M HCl and 0.2M NaOH to within 0.1 of the desired pH unit (where possible). The pHs of the saturated solutions were measured (where applicable) and an appearance was recorded. The suspensions were filtered through a glass fibre C filter (particle retention […]) and diluted appropriately. Quantitation was by HPLC with reference to a standard solution of approximately 0.15 mg/ml in DMSO. Different volumes of the standard, diluted and undiluted sample solutions were injected. The solubility was calculated using the peak areas determined by integration of the peak found at the same retention time as the principal peak in the standard injection.

[4] = Solubility repeat at pH 1.2 (reverse addition); details: pH 1.2 buffered media, pH maintained at 1.2, reverse addition
Procedure: Procedure: pH 1.2 buffered media (0.4 ml) was added to two separate 7 ml vials. For each compound, material was added in portions to the pH 1.2 media. After each addition of compound, the vial was vortex mixed and the pH and appearance was recorded. The samples were adjusted to pH 1.2 with 1M HCl to within 0.05 of the desired pH unit. This was repeated until no further material was available (˜400 mg for each form, which would give a maximum concentration of around 1000 mg/ml if no adjustment was required).

XRPD under vacuum = experiment: XRPD under vacuum
Procedure: For vacuum experiments the samples were prepared and analysed in an Anton Paar chromed sample holder. The measurement parameters are as per the standard screening data collection method (detailed above), at 25° C. with no vacuum (I2). A vacuum of around 50 mbar was then applied and the sample measured every 5 min until the anhydrate pattern was obtained for three consecutive measurements (to ensure complete dehydration, up to sample I8). The vacuum was then released and the sample analysed every 5 min for 6 measurements (until sample I22). The sample was then reanalyzed by XRPD after 1 h to check for complete rehydration.
MH1 was analysed at 25° C. with no vacuum. A vacuum of around 50 mbar was then applied and the sample measured every 5 min until the anhydrate pattern was obtained for three consecutive measurements (to ensure complete dehydration). The vacuum was then released and the sample analysed every 5 min for 6 measurements before the front of the sample stage was removed.
as §1

[5] = Drying investigation of the two hydrates (vacuum oven, XRPD and TGA)
Procedure: Procedure: MH1 and MH2 were placed in a vacuum oven at 50° C. and RT for 24 h. The samples were then analysed by TGA and XRPD immediately after removal and after 4 hours standing under ambient conditions.

[6] = Thermodynamic aqueous solubility; details: thermodynamic from solid, water, 25° C.
Procedure: Aqueous solubility was determined by suspending sufficient compound in relevant media to give a maximum final concentration of ≥200 mg/ml of the parent freeform of the compound. The suspension was equilibrated at 25° C., on a Heidolph plate shaker set to 750 rpm for 24 hours. The pH of the saturated solution was then measured and the suspension filtered through a glass fibre C filter (particle retention 1.2 μm) and diluted appropriately. Quantitation was by HPLC with reference to a standard solution of approximately 0.15 mg/ml in DMSO. Different volumes of the standard, diluted and undiluted sample solutions were injected.
The solubility was calculated using the peak areas determined by integration of the peak found at the same retention time as the principal peak in the standard injection.
Analysis was performed on an Agilent HP1100 series system equipped with a diode array detector and using ChemStation software.

Form by VT XRPD upon heating ([2]; 50° C.): mixture of MH2 and AH | Form by VT XRPD upon heating ([2]; 75° C.): complete conversion to AH | Form by VT XRPD after cooling back ([2]; re-cooled to 25° C.): completely transformed into MH1 | solubility at 24 h ([3]; pH 1.2 media, pH 1.2, simulated gastric fluid, media pH 1.2, 25° C., pH not maintained, final pH 5.02 (MH1-A), 6.63 (MH2-A)): > 275 mg/mL | solubility at 24 h ([3]; pH 4.0 media, pH 4, aqueous buffer, media pH 4.0, 25° C.): > 99 mg/mL | solubility at 24 h ([3]; pH 6.5 media, pH 6.5, aqueous buffer, media pH 6.5, 25° C.): > 147 mg/mL | solubility at 24 h ([3]; pH 7.5 media, pH 7.5, aqueous buffer, media pH 7.5, 25° C.): 58 mg/mL (≈ 147 mM) | Solubility at pH 1.2 [4]: >161 mg/ml | Final XRPD pattern after vacuum released (XRPD under vacuum; data collected for 55 minutes after release): mixture of AH and MH1 | Form by XRPD on reanalysis (XRPD under vacuum; reanalyzed after 1 h): complete rehydration to MH 1 | Time under vacuum to conversion to the anhydrate by XRPD (XRPD under vacuum; vacuum of around 50 mbar, 25° C.): 5 min | XRPD (T = 0, 50° C.) ([5]; vacuum oven 50° C. 24 h, immediately after removal): Matches MH1 and AH | TGA (T = 0, 50° C.) ([5]; vacuum oven 50° C. 24 h, immediately after removal, lost between 25 and 100° C.): 0.6% w/w lost between | TGA (T = 4 h, 50° C.) ([5]; vacuum oven 50° C. 24 h, then 4 hours ambient, lost between 25 and 100° C.): 1.9% w/w lost between | XRPD (T = 4 h, 50° C.) ([5]; vacuum oven 50° C. 24 h, then 4 hours at ambient conditions): Matches MH1 | XRPD (T = 0, RT) ([5]; vacuum oven RT 24 h, immediately after removal): Matches MH1 and AH | TGA (T = 0, RT) ([5]; vacuum oven RT 24 h, immediately after removal, lost between 25 and 100° C.): 0.2% w/w lost between | TGA (T = 4 h, RT) ([5]; vacuum oven RT 24 h, then 4 hours ambient, lost between 25 and 100° C.): 1.9% w/w lost between | XRPD (T = 4 h, RT) ([5]; vacuum oven RT 24 h, then 4 hours at ambient conditions): Matches MH1 | solubility thermodynamic at 24 h [6]: 36.5 mg/mL (≈ 92.5 mM)
Compound: C[C@@H]1CN(Cc2ncccn2)C[C@H]1c1cn2c(C3CCOCC3)ncc2c(=O)[nH]1 [MH2, 6-[(3S,4S)-4-methyl-1-(pyrimidin-2-ylmethyl)pyrrolidin-3-yl]-3-tetrahydropyran-4-yl-7H-imidazo[1,5-a]pyrazin-8-one]
GVS first sorption cycle uptake ([1]; 40 to 90% RH, 25° C.): lack of uptake; also recorded: First sorption cycle from 40 to 90% RH, no uptake | XRPD post-GVS ([1]; solid form after GVS): rehydrated as MH1; also recorded: Crystalline - Matches MH1

Conversion under ambient conditions ([2]; after VT XRPD, standing at 25° C.): readily converts to MH1 | Conversion under ambient conditions (XRPD under vacuum; after vacuum XRPD, ambient air): readily converts to MH1
Compound: C[C@@H]1CN(Cc2ncccn2)C[C@H]1c1cn2c(C3CCOCC3)ncc2c(=O)[nH]1 [anhydrate, 6-[(3S,4S)-4-methyl-1-(pyrimidin-2-ylmethyl)pyrrolidin-3-yl]-3-tetrahydropyran-4-yl-7H-imidazo[1,5-a]pyrazin-8-one]
